Source: patent US20250066326A1, “BCL6 DEGRADERS AND USES THEREOF” (Dana-Farber Cancer Institute, Inc., priority 2021, published 2025)

Key:
BCL6 [1] = molecular target: T1, BCL6 (Homo sapiens, UniProt P41182); assay: BCL6 degradation immunoblot in VAL cells; format: cell-based
T1 construct: endogenous in cells; host or cells: VAL cells
Experimental: (§1) Inclusive of Examples 8-14, VAL cells were seeded in 6-well plates at 1×10^6 cells/well and treated with indicated concentration and time point for the indicated compounds. Total protein was extracted from cells using the RIPA buffer (Abcam) supplemented with the Halt Protease Inhibitor Cocktail (Millipore-Sigma). Samples were loaded to Invitrogen Bolt Bis -Tris Plus gels (ThermoFisher Scientific) and transferred to Invitrolon PVDF membranes (ThermoFisher Scientific) using the Invitrogen Bolt wet-gel Transfer Device. Immunodetection was performed with standard techniques. The following primary and secondary antibodies were used: anti-BCL6, β-actin, H3 (Cell Signaling Technology), and IRDye secondary antibodies at the concentration recommended by the manufacturer.
VAL cells were treated with compounds at serial concentrations of 0.1 μM, 1.0 μM, and 10 μM for 4 hours.
VAL cells were treated with 1 at serial concentrations of 0.001 μM, 0.010 μM, 0.100 μM, 1.0 μM, and 10 μM for 4 hours.
VAL cells were treated with 5 at serial concentrations of 0.001 μM, 0.010 μM, 0.100 μM, 1.0 μM, and 10 μM for 4 hours.
VAL cells were treated with 1 at 0.1 μM for 1, 2, 4, 8, and 24 hours.
VAL cells were treated with 6 at serial concentrations of 0.1 μM, 0.3 μM, 1.0 μM, 3.0 μM and 10 μM for 4 hours.

BCL6 [2] = molecular target: T1, BCL6; assay: BCL6 degradation immunoblot in DB cells; format: cell-based; conditions: tested at 0.1, 1.0, 10 μM for 4 hours, compared to BI-3812 and BI-3802
Experimental: as §1
DB cells were treated with compounds at serial concentrations of 0.1 μM, 1.0 μM, and 10 μM for 4 hours.

[3] = tested at 0.001, 0.010, 0.100, 1.0, 10 μM for 4 hours
[4] = tested at 0.1, 1.0, 10 μM for 4 hours, compared to BI-3812 and BI-3802

## CNC(=O)COc1cc2cc(Nc3nc(N4CCC(NC(=O)CCCCCCCCCCCNc5cccc6c5C(=O)N(C5CCC(=O)NC5=O)C6=O)CC4)ncc3Cl)cc(OC)c2n(C)c1=O (centres unmarked) [compound 5, N-(1-(5-chloro-4-((8-methoxy-1-methyl-3-(2-(methylamino)-2-oxoethoxy)-2-oxo-1,2-dihydroquinolin-6-yl)amino)pyrimidin-2-yl)piperidin-4-yl)-12-((2-(2,6-dioxopiperidin-3-yl)-1,3-dioxoisoindolin-4-yl)amino)dodecanamide]
BCL6 [1]; [3]
  concentration at which compound degrades BCL6 (immunoblot): 10 nM
BCL6 [1]; [4]
  concentration at which compound degrades BCL6 (immunoblot): 100 nM
BCL6 [2]
  concentration at which compound degrades BCL6 (immunoblot): 1000 nM

## CNC(=O)COc1cc2cc(Nc3nc(N4CCC(C(=O)NCCOCCNc5cccc6c5C(=O)N(C5CCC(=O)NC5=O)C6=O)CC4)ncc3Cl)cc(OC)c2n(C)c1=O (centres unmarked) [compound 4, 1-(5-chloro-4-((8-methoxy-1-methyl-3-(2-(methylamino)-2-oxoethoxy)-2-oxo-1,2-dihydroquinolin-6-yl)amino)pyrimidin-2-vl)-N-(2-(2-((2-(2,6-dioxopiperidin-3-yl)-1,3-dioxoisoindolin-4-yl)amino)ethoxy)ethyl)piperidine-4-carboxamide]
BCL6 [1]; [4]
  concentration at which compound degrades BCL6 (immunoblot): 100 nM
BCL6 [2]
  concentration at which compound degrades BCL6 (immunoblot): 1000 nM

## CNC(=O)COc1cc2cc(Nc3nc(N4CCC(C(=O)NCCCCNc5cccc6c5C(=O)N(C5CCC(=O)NC5=O)C6=O)CC4)ncc3Cl)cc(OC)c2n(C)c1=O (centres unmarked) [compound 3, 1-(5-chloro-4-((8-methoxy-1-methyl-3-(2-(methylamino)-2-oxoethoxy)-2-oxo-1,2-dihydroquinolin-6-yl)amino)pyrimidin-2-v1)-N-(4-((2-(2,6-dioxopiperidin-3-yl)-1,3-dioxoisoindolin-4-yl)amino)butyl)piperidine-4-carboxamide]
BCL6 [1]; [4]
  concentration at which compound degrades BCL6 (immunoblot): 100 nM
BCL6 [2]
  concentration at which compound degrades BCL6 (immunoblot): 100 nM

## CNC(=O)COc1cc2cc(Nc3nc(N4CCC(C(=O)NCCCCCCNC(=O)COc5cccc6c5C(=O)N(C5CCC(=O)NC5=O)C6=O)CC4)ncc3Cl)cc(OC)c2n(C)c1=O (centres unmarked) [compound 6, 1-(5-chloro-4-((8-methoxy-1-methyl-3-(2-(methylamino)-2-oxoethoxy)-2-oxo-1,2-dihydroquinolin-6-yl)amino)pyrimidin-2-vl)-N-(6-(2-((2-(2,6-dioxopiperidin-3-yl)-1,3-dioxoisoindolin-4-yl)oxy)acetamido)hexyl)piperidine-4-carboxamide]
BCL6 [1]; tested at 0.1, 0.3, 1.0, 3.0, 10 μM for 4 hours
  concentration at which compound degrades BCL6 (immunoblot): 300 nM

## CNC(=O)COc1cc2cc(Nc3nc(N4CCC(C(=O)NCCCCCCCCNc5cccc6c5C(=O)N(C5CCC(=O)NC5=O)C6=O)CC4)ncc3Cl)cc(OC)c2n(C)c1=O (centres unmarked) [compound 1, 1-(5-chloro-4-((8-methoxy-1-methyl-3-(2-(methylamino)-2-oxoethoxy)-2-oxo-1,2-dihydroquinolin-6-yl)amino)pyrimidin-2-yl)-N-(8-((2-(2,6-dioxopiperidin-3-yl)-1,3-dioxoisoindolin-4-yl)amino)octyl)piperidine-4-carboxamide]
BCL6 [1]; 0.1 μM (100 nM), time points 1, 2, 4, 8, 24 hours
  time in which BCL6 is degraded (immunoblot): less than 1 hour
BCL6 [1]; [3]
  concentration at which compound degrades BCL6 (immunoblot): 1.0 nM
BCL6 [1]; [4]
  concentration at which compound degrades BCL6 (immunoblot): 100 nM
